Experimental data from ChEMBL document CHEMBL5620415, “Design, synthesis and anti-hepatic fibrosis activity of novel diphenyl vitamin D receptor agonists” (Eur J Med Chem, 2023).
Activity calls are given as the source filed them. The calls are words filed in the database; no cut-off is given here.

Assays:
Mus musculus [1] = test: Anti-fibrotic effect in CCl4-induced hepatic fibrosis C57BL/6 mouse model assessed as inhibition of collagen deposition at 500 ug/kg, po five times a week for 2 weeks by Hematoxylin-Eosin (H&E) staining based assay; assay type: functional, organism-based; settings: dose 500.0 µg/kg
Mus musculus [2] = test: Anti-fibrotic effect in bile duct ligation (BDL) surgery-induced hepatic fibrosis C57BL/6 mouse model assessed as inhibition of serum total bile acid (TBA) level at 500 ug/kg, po five times a week for 2 weeks; assay type: functional, organism-based; settings: dose 500.0 µg/kg
Mus musculus [3] = test: Anti-fibrotic effect in bile duct ligation (BDL) surgery-induced hepatic fibrosis C57BL/6 mouse model assessed as inhibition of collagen deposition in liver at 500 ug/kg, po five times a week for 2 weeks by Masson's Trichrome […] staining based assay; assay type: functional, organism-based; settings: dose 500.0 µg/kg
Mus musculus [4] = test: Anti-fibrotic effect in improving CCl4-induced hepatic fibrosis C57BL/6 mouse model assessed as inhibition of Ctgf expression in liver at 500 ug/kg, po five times a week for 2 weeks by RT-qPCR analysis; assay type: functional, organism-based; settings: dose 500.0 µg/kg
Mus musculus [5] = test: Anti-fibrotic effect in CCl4-induced hepatic fibrosis C57BL/6 mouse model assessed as reduction in hepatic fibrosis lesions at 500 ug/kg, po five times a week for 2 weeks by Masson's Trichrome staining based assay; assay type: functional, organism-based; settings: dose 500.0 µg/kg
Mus musculus [6] = test: Anti-fibrotic effect in CCl4-induced hepatic fibrosis C57BL/6 mouse model assessed as inhibition of serum ALT level at 500 ug/kg, po five times a week for 2 weeks; assay type: functional, organism-based; settings: dose 500.0 µg/kg
Mus musculus [7] = test: Anti-fibrotic effect in CCl4-induced hepatic fibrosis C57BL/6 mouse model assessed as decrease in inflammatory cell infiltration at 500 ug/kg, po five times a week for 2 weeks by Hematoxylin-Eosin (H&E) staining based assay; assay type: functional, organism-based; settings: dose 500.0 µg/kg
Mus musculus [8] = test: Anti-fibrotic effect in bile duct ligation (BDL) surgery-induced hepatic fibrosis C57BL/6 mouse model assessed as inhibition of collagen deposition in liver at 500 ug/kg, po five times a week for 2 weeks by Hematoxylin-Eosin (H&E) staining based assay; assay type: functional, organism-based; settings: dose 500.0 µg/kg
Mus musculus [9] = test: Anti-fibrotic effect in bile duct ligation (BDL) surgery-induced hepatic fibrosis C57BL/6 mouse model assessed as decrease in inflammatory cell infiltration at 500 ug/kg, po five times a week for 2 weeks by Masson's Trichrome staining based assay; assay type: functional, organism-based; settings: dose 500.0 µg/kg
Mus musculus [10] = test: Anti-fibrotic effect in bile duct ligation (BDL) surgery-induced hepatic fibrosis C57BL/6 mouse model assessed as reduction the lesions at 500 ug/kg, po five times a week for 2 weeks by Masson's Trichrome staining based assay; assay type: functional, organism-based; settings: dose 500.0 µg/kg
Mus musculus [11] = test: Anti-fibrotic effect in CCl4-induced hepatic fibrosis C57BL/6 mouse model assessed as inhibition of Timp-1 expression in liver at 500 ug/kg, po five times a week for 2 weeks by RT-qPCR analysis; assay type: functional, organism-based; settings: dose 500.0 µg/kg
Mus musculus [12] = test: Anti-fibrotic effect in bile duct ligation (BDL) surgery-induced hepatic fibrosis C57BL/6 mouse model assessed as inhibition of serum ALT level at 500 ug/kg, po five times a week for 2 weeks; assay type: functional, organism-based; settings: dose 500.0 µg/kg
Mus musculus [13] = test: Anti-fibrotic effect in CCl4-induced hepatic fibrosis C57BL/6 mouse model assessed as reduction the lesions at 500 ug/kg, po five times a week for 2 weeks by Hematoxylin-Eosin (H&E) staining based assay; assay type: functional, organism-based; settings: dose 500.0 µg/kg
Mus musculus [14] = test: Anti-fibrotic effect in improving CCl4-induced hepatic fibrosis C57BL/6 mouse model assessed as decrease in liver to kidney brightness ratio at 500 ug/kg, po five times a week for 2 weeks by qualitative ultrasound imaging analysis; assay type: functional, organism-based; settings: dose 500.0 µg/kg
[15] = molecular target: T1, Vitamin D3 receptor (Homo sapiens) (UniProt P11473); test: Agonist activity at Vitamin D receptor in human LX-2 cells assessed as transcriptional activity by measuring induction of CYP24A expression at 0.5 uM by RT-qPCR analysis relative to control; assay type: cell-based; settings: filed as agonist
T1 sequence (whole entry): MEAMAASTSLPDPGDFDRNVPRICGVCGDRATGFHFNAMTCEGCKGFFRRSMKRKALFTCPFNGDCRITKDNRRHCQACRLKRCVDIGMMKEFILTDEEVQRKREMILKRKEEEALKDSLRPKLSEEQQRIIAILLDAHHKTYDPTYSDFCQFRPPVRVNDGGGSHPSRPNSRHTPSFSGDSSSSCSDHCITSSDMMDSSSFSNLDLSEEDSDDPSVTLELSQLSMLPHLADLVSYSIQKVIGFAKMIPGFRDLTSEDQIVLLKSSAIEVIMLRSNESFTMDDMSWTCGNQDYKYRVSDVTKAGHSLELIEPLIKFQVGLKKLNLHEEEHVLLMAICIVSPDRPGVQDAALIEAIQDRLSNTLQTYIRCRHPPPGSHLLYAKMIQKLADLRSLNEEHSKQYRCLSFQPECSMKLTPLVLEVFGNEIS

Mus musculus [16] = test: Anti-fibrotic effect in CCl4-induced hepatic fibrosis C57BL/6 mouse model assessed as inhibition of serum total bile acid (TBA) level at 500 ug/kg, po five times a week for 2 weeks; assay type: functional, organism-based; settings: dose 500.0 µg/kg
Mus musculus [17] = test: Anti-fibrotic effect in CCl4-induced hepatic fibrosis C57BL/6 mouse model assessed as inhibition of proliferation of fibrous tissue at 500 ug/kg, po five times a week for 2 weeks by Hematoxylin-Eosin (H&E) staining based assay; assay type: functional, organism-based; settings: dose 500.0 µg/kg
[18] = molecular target: T1, Vitamin D3 receptor (Homo sapiens); test: Agonist activity at Vitamin D receptor in HEK293 cells assessed as receptor transactivation incubated for 48 hrs by dual-luciferase reporter assay; assay type: cell-based; settings: filed as agonist, dose 0.01-1 µM
[19] = molecular target: T1, Vitamin D3 receptor (Homo sapiens); test: Binding affinity to human full-length Vitamin D receptor assessed as relative binding affinity at 1 uM incubated for 2 hrs by fluorescence polarization based competitive binding assay relative to calcipotriol; settings: filed as agonist
Mus musculus [20] = test: Anti-fibrotic effect in CCl4-induced hepatic fibrosis C57BL/6 mouse model assessed as decrease in inflammatory cell infiltration at 500 ug/kg, po five times a week for 2 weeks by Masson's Trichrome staining based assay; assay type: functional, organism-based; settings: dose 500.0 µg/kg
Mus musculus [21] = test: Anti-fibrotic effect in CCl4-induced hepatic fibrosis C57BL/6 mouse model assessed as inhibition of collagen deposition at 500 ug/kg, po five times a week for 2 weeks by Masson's Trichrome […] staining based assay; assay type: functional, organism-based; settings: dose 500.0 µg/kg
Mus musculus [22] = test: Anti-fibrotic effect in CCl4-induced hepatic fibrosis C57BL/6 mouse model assessed as reduction the lesions at 500 ug/kg, po five times a week for 2 weeks by Masson's Trichrome staining based assay; assay type: functional, organism-based; settings: dose 500.0 µg/kg
Mus musculus [23] = test: Anti-fibrotic effect in bile duct ligation (BDL) surgery-induced hepatic fibrosis C57BL/6 mouse model assessed as inhibition of serum AST level at 500 ug/kg, po five times a week for 2 weeks; assay type: functional, organism-based; settings: dose 500.0 µg/kg
Mus musculus [24] = test: Anti-fibrotic effect in bile duct ligation (BDL) surgery-induced hepatic fibrosis C57BL/6 mouse model assessed as inhibition of Ctgf expression in liver at 500 ug/kg, po five times a week for 2 weeks by RT-qPCR analysis; assay type: functional, organism-based; settings: dose 500.0 µg/kg
Mus musculus [25] = test: Anti-fibrotic effect in improving CCl4-induced hepatic fibrosis C57BL/6 mouse model assessed as inhibition of fibronectin (Fn) expression in liver at 500 ug/kg, po five times a week for 2 weeks by RT-qPCR analysis; assay type: functional, organism-based; settings: dose 500.0 µg/kg
Mus musculus [26] = test: Anti-fibrotic effect in bile duct ligation (BDL) surgery-induced hepatic fibrosis C57BL/6 mouse model assessed as reduction the lesions at 500 ug/kg, po five times a week for 2 weeks by Hematoxylin-Eosin (H&E) staining based assay; assay type: functional, organism-based; settings: dose 500.0 µg/kg

Activity [15]: Active
Activity [18]: Dose-Dependent Effect
RBA [19]: 51.4%
SMILES: OCc1ccc(/C=C/c2ccc(OCCCC(F)(F)F)cc2)cc1CO
Activity (Mus musculus [1]): Active
Activity (Mus musculus [2]): Active
Activity (Mus musculus [3]): Active
Activity (Mus musculus [4]): Active
Activity (Mus musculus [5]): Active
Activity (Mus musculus [6]): Active
Activity (Mus musculus [7]): Active
Activity (Mus musculus [8]): Active
Activity (Mus musculus [9]): Active
Activity (Mus musculus [10]): Active
Activity (Mus musculus [11]): Active
Activity (Mus musculus [12]): Active
Activity (Mus musculus [13]): Active
Activity (Mus musculus [14]): Active
Activity (Mus musculus [16]): Active
Activity (Mus musculus [17]): Active
Activity (Mus musculus [20]): Active
Activity (Mus musculus [21]): Active
Activity (Mus musculus [22]): Active
Activity (Mus musculus [23]): Active
Activity (Mus musculus [24]): Active
Activity (Mus musculus [25]): Active
Activity (Mus musculus [26]): Active
